Target: T1, F508del (Homo sapiens, UniProt P13569, DEL508-508)
T1 construct: expressed in transfected cells
Assay: Protocol 1: membrane potential optical assay (FLIPR III, voltage sensing dye), identification of potentiator compounds
Type: cell-based
Conditions: Table 3, compounds of Table 1
Method in brief: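 Read-out: change in voltage-sensing dye fluorescence (FLIPR III) as a measure of F508del conductance. Temperature-corrected (27° C, 24 hrs) NIH 3T3 cells expressing F508del are pretreated with potentiators, dye-loaded, then stimulated with forskolin under a chloride ion gradient using chloride-free gluconate bath.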

T1 sequence (P13569 with tags, fused parts or gaps DEL508-508): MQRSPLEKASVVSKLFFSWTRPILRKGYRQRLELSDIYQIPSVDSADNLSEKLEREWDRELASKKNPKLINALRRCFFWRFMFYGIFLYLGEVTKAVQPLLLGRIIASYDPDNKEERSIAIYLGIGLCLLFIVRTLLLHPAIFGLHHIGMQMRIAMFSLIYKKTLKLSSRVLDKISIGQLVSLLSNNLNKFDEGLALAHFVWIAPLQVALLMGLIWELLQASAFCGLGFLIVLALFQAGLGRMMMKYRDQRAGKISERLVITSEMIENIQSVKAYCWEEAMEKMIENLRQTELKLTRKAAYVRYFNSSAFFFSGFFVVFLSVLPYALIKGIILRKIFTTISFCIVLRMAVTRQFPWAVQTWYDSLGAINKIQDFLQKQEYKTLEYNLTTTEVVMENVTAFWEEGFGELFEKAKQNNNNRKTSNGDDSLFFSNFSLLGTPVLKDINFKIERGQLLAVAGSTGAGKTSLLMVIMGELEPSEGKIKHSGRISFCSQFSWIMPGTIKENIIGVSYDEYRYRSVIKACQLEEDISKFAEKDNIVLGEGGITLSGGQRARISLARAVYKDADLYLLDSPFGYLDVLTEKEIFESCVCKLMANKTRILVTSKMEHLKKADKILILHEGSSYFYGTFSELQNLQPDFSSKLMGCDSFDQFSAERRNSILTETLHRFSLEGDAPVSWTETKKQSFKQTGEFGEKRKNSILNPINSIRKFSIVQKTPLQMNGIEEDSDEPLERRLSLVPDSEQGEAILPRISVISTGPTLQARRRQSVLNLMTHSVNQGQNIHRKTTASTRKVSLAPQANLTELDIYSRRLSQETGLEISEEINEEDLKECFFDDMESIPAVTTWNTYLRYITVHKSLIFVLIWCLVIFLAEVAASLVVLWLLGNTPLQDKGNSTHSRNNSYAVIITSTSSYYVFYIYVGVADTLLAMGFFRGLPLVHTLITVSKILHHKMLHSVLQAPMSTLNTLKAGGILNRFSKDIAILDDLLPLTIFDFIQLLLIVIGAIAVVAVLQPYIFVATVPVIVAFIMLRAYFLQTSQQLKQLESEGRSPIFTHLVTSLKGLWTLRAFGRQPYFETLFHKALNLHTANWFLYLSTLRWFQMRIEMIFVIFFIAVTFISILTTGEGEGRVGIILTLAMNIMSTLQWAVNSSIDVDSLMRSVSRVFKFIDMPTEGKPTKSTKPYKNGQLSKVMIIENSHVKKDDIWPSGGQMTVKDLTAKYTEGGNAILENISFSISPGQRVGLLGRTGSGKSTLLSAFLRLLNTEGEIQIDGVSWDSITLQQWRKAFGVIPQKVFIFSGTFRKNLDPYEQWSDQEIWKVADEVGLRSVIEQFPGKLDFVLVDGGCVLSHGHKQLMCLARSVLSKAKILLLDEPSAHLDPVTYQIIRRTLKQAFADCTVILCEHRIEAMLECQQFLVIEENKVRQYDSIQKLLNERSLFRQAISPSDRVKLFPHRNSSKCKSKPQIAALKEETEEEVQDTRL

| Compound | EC30 |
| --- | --- |
| Cc1cc(C)c(Oc2nc(-c3ccccc3)ccc2C(=O)NS(=O)(=O)c2cccc(NCCN(C)C)n2)c(C)c1 [Compound 1122, N-[[6-(2-dimethylaminoethylamino)-2-pyridyl]sulfonyl]-6-phenyl-2-(2,4,6-trimethylphenoxy)pyridine-3-carboxamide] | ++ (“++” means between 3 uM and 10 uM) |
| COc1ccccc1S(=O)(=O)NC(=O)c1ccc(C(C)(C)C)nc1-c1ccc(C)cc1 [Compound 1124, 6-tert-butyl-N-(2-methoxyphenyl)sulfonyl-2-(p-tolyl)pyridine-3-carboxamide] | +++ (“+++” means <3 uM) |
| CC(C)COc1cc(F)cc(-c2ccc(C(=O)NS(=O)(=O)c3ccn[nH]3)c(N3CCC4(CC3)CC4)n2)c1 [Compound 1127, 2-(6-azaspiro[2.5]octan-6-yl)-6-(3-fluoro-5-isobutoxy-phenyl)-N-(1H-pyrazol-5-ylsulfonyl)pyridine-3-carboxamide] | +++ (“+++” means <3 uM) |
| CCNc1ccc(C(=O)NS(=O)(=O)c2cccc(N)n2)c(Oc2c(C)cc(C)cc2C)n1 [Compound 1128, N-[(6-amino-2-pyridyl)sulfonyl]-6-(ethylamino)-2-(2,4,6-trimethylphenoxy)pyridine-3-carboxamide] | ++ (“++” means between 3 uM and 10 uM) |
| Cc1ccc(-c2ccc(C(=O)NS(=O)(=O)c3ccc[nH]c3=O)c(Oc3ccc(C)cc3C)n2)cc1 [Compound 1129, 2-(2,4-dimethylphenoxy)-N-[(2-oxo-1H-pyridin-3-yl)sulfonyl]-6-(p-tolyl)pyridine-3-carboxamide] | ++ (“++” means between 3 uM and 10 uM) |

The remaining lines, values ahead:

| EC30 | Compound |
| --- | --- |
| +++ (“+++” means <3 uM) | CC(C)Oc1cc(F)cc(-c2ccc(C(=O)NS(=O)(=O)c3cccc(N)n3)c(N3[C@H](C)CC[C@@H]3C)n2)c1 [Compound 1123, N-[(6-amino-2-pyridyl)sulfonyl]-2-[(2S,5R)-2,5-dimethylpyrrolidin-1-yl]-6-(3-fluoro-5-isopropoxy-phenyl)pyridine-3-carboxamide] |
| ++ (“++” means between 3 uM and 10 uM) | C[C@@H]1CC[C@H](C)N1c1nc(-c2ccc(OC3CC3)nc2)ccc1C(=O)NS(=O)(=O)c1cccc(N)n1 [Compound 1125, N-[(6-amino-2-pyridyl)sulfonyl]-6-[6-(cyclopropoxy)-3-pyridyl]-2-[(2S,5R)-2,5-dimethylpyrrolidin-1-yl]pyridine-3-carboxamide] |
| + (“+” means greater than 10 uM) | Cc1cc(C)c(Oc2nc(-c3cnc(NC4CC4)nc3)ccc2C(=O)NS(=O)(=O)c2cccc(N)n2)c(C)c1 [Compound 1126, N-[(6-amino-2-pyridyl)sulfonyl]-6-[2-(cyclopropylamino)pyrimidin-5-yl]-2-(2,4,6-trimethylphenoxy)pyridine-3-carboxamide] |
| ++ (“++” means between 3 uM and 10 uM) | CCOc1ncc(-c2ccc(C(=O)NS(=O)(=O)c3cccc(N)n3)c(Oc3c(C)cc(C)cc3C)n2)cn1 [Compound 1130, N-[(6-amino-2-pyridyl)sulfonyl]-6-(2-ethoxypyrimidin-5-yl)-2-(2,4,6-trimethylphenoxy)pyridine-3-carboxamide] |
| +++ (“+++” means <3 uM) | Cc1cc(C)c(Oc2nc(C3CCCCC3)ccc2C(=O)NS(=O)(=O)c2cccc(N)n2)c(C)c1 [Compound 1131, N-[(6-amino-2-pyridyl)sulfonyl]-6-cyclohexyl-2-(2,4,6-trimethylphenoxy)pyridine-3-carboxamide] |
| +++ (“+++” means <3 uM) | CC(C)Oc1ccc(-c2ccc(C(=O)NS(=O)(=O)c3cccc(N)n3)c(N3CCCC(C4CC4)C3)n2)cn1 (stereo not drawn) [Compound 1132, N-[(6-amino-2-pyridyl)sulfonyl]-2-(3-cyclopropyl-1-piperidyl)-6-(6-isopropoxy-3-pyridyl)pyridine-3-carboxamide] |
| +++ (“+++” means <3 uM) | CCOc1cccc(-c2ccc(C(=O)NS(=O)(=O)c3cccc(N)n3)c(Oc3c(C)cc(C)cc3C)n2)n1 [Compound 1133, N-[(6-amino-2-pyridyl)sulfonyl]-6-(6-ethoxy-2-pyridyl)-2-(2,4,6-trimethylphenoxy)pyridine-3-carboxamide] |

Reference: patent US10758534B2 (Vertex Pharmaceuticals Incorporated, priority 2014, dated 2020)
